Reference: patent US12104168B2, “Cell culture medium” (Agency For Science, Technology And Research, priority 2018, dated 2024)

System: hepSC
Assay: Dasatinib withdrawal or replacement in hSC media, maintenance of hepSC stem cell state
Details: for survival of hepatic stem cells: ABL kinase inhibitor together with SRC inhibition, replacing Dasatinib; for rescue of phenotype after subculturing / rescue of cell phenotype: added instead of Dasatinib; for rescue of phenotype after subculturing: 48 hr after subculturing; for rescue of cell phenotype: 6 days after withdrawal; for rescue of cell morphology changes: replacement of Dasatinib with the inhibitor, 48 hrs

Structure (SMILES) | survival of hepatic stem cells | rescue of phenotype after subculturing | rescue of cell phenotype | rescue of cell morphology changes
Cc1ccc(NC(=O)c2ccc(CN3CCN(C)CC3)cc2)cc1Nc1nccc(-c2cccnc2)n1 [Imatinib] | seems to improved survival of hepatic stem cells | did not rescue the phenotype | did not rescue the cell phenotype | did not rescue cell morphology changes
Cc1cn(-c2cc(NC(=O)c3ccc(C)c(Nc4nccc(-c5cccnc5)n4)c3)cc(C(F)(F)F)c2)cn1 [Nilotinib] | seems to improved survival of hepatic stem cells | did not rescue the phenotype | did not rescue the cell phenotype | did not rescue cell morphology changes
